A word on the EC50: it is the concentration needed to bring the measured effect to its halfway point. Read a high EC50 as lower potency in that assay.

The test deals with T1, human GPR119 (hGPR119) (Homo sapiens, UniProt Q8TDV5).
T1 construct: expressed in transfected cells; host or cells: CHO-K1
T1 sequence (Q8TDV5 1-335): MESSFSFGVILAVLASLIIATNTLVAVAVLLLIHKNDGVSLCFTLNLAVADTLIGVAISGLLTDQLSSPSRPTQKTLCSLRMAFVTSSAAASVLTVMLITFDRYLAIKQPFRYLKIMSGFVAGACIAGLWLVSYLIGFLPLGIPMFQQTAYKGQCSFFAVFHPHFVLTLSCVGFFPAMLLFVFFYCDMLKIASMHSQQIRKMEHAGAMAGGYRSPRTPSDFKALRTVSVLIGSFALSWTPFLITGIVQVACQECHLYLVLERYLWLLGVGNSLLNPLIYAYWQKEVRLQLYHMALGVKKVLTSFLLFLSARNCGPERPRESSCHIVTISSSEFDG
As to the kind of experiment: cAMP accumulation assay in CHO-K1 cells stably expressing hGPR119. It counts as cell-based. Conditions: cAMP HTRF, 60 minutes. As for the experimental part:
CHO-K1 cells stably expressing human GPR119 (hGPR119) were prepared by transfection of a GPR119-carrying plasmid using Lipofectamine 2000 (following manufacturer instructions). A stable cell line was established using the limiting dilution method with geneticine selection. Assay-ready frozen (ARF) cells were prepared and used throughout the study.
The assay was performed in a 384-well plate format using the CAMP Gs dynamic assay kit from Cisbio. ARF cells expressing hGPR119 were thawed, washed and then resuspended in CAMP stimulation buffer at a cell density of 1.1×10^6 cells/mL. Cells were plated at a density of ~10,000 cells/well (9 μL/well). Dose response curves for the tested compounds were prepared in a cAMP stimulation buffer, containing 0.1% Tween 80 at 4 fold the final concentration. The compounds were then transferred to the cell plates using BRAVO (3 μL/well) and the plates were incubated for 60 minutes at 37° C./5% CO2. Detection buffer (10 μL, prepared as described in the CAMP Gs dynamic kit) were added to each well, and the plates were incubated at ambient temperature for 1 hr.
RT-FRET was measured using a ClarioSTAR plate reader, calculating the ratio between emissions at 665 nm and 620 nm (HTRF ratio). The HTRF ratio for positive (Max) and negative (Min) controls were used to normalize HTRF data and generate values for % activity. EC50 and Max activity values were determined using a standard 4-parameter fit.
A general note: Changes in cAMP serve as a functional read-out for many G protein-coupled receptors.
The molecule `CCc1cnc(N2CCC(CCCOc3cc(F)c(CC(=O)N4CC(CNCCNC(=O)NC(CO)(CO)CO)C4)c(F)c3)CC2)nc1` [Compound A38, 1-(1,3-dihydroxy-2-(hydroxymethyl)propan-2-yl)-3-(2-(((1-(2-(4-(3-(1-(5-ethylpyrimidin-2-yl)piperidin-4-yl)propoxy)-2,6-difluorophenyl)acetyl)azetidin-3-yl)methyl)amino)ethyl)urea] returned an EC50 of at most 100 nM.

In turn, `CCOc1cnc(N2CCC(CCCOc3ccc(CC(=O)N4CC(CNC[C@H](O)[C@@H](O)[C@H](O)[C@H](O)CO)C4)c(F)c3)CC2)nc1` (racemic) [Compound A50, 2-[4-[3-[1-(5-ethoxypyrimidin-2-yl)-4-piperidyl]propoxy]-2-fluoro-phenyl]-1-[3-[[[rac-(2S,3R,4R,5R)-2,3,4,5,6-pentahydroxyhexyl]amino]methyl]azetidin-1-yl]ethanone] gave an EC50 of 100 to 1000 nM.

`O=C(Cc1ccc(OCCCC2CCN(c3ncc(Cl)cn3)CC2)cc1F)N1CC(CCNCC(O)(CO)CO)C1` [Compound A28, 2-(4-(3-(1-(5-chloropyrimidin-2-yl)piperidin-4-yl)propoxy)-2-fluorophenyl)-1-(3-(2-((2,3-dihydroxy-2-(hydroxymethyl)propyl)amino)ethyl)azetidin-1-yl)ethan-1-one] showed an EC50 of 100 to 1000 nM.

`CCCc1cnc(N2CCC(CCCOc3cc(F)c(CC(=O)N4CC(CNC[C@H](O)[C@@H](O)[C@H](O)[C@H](O)CO)C4)c(F)c3)CC2)nc1` [Compound A48, 2-(2,6-difluoro-4-(3-(1-(5-propylpyrimidin-2-yl)piperidin-4-yl)propoxy)phenyl)-1-(3-((((2S,3R,4R,5R)-2,3,4,5,6-pentahydroxyhexyl)amino)methyl)azetidin-1-yl)ethan-1-one] registered an EC50 of at most 100 nM.

`O=C(Cc1c(F)cc(OCCCC2CCN(c3ncc(Cl)cn3)CC2)cc1F)N1CC(CNC[C@H](O)[C@@H](O)[C@H](O)[C@H](O)CO)C1` [Compound A25, 2-[4-[3-[1-(5-chloropyrimidin-2-yl)-4-piperidyl]propoxy]-2,6-difluoro-phenyl]-1-[3-[[[(2S,3R,4R,5R)-2,3,4,5,6-pentahydroxyhexyl]amino]methyl]azetidin-1-yl]ethanone] displayed an EC50 of at most 100 nM.

`O=C(NC(CO)CO)C1CN(C(=O)Cc2ccc(OCCCC3CCN(c4ncc(Cl)cn4)CC3)cc2F)C1` [Compound A3, 1-[2-[4-[3-[1-(5-chloropyrimidin-2-yl)-4-piperidyl]propoxy]-2-fluoro-phenyl]acetyl]-N-[2-hydroxy-1-(hydroxymethyl)ethyl]azetidine-3-carboxamide] had an EC50 of 100 to 1000 nM.

As to `O=C(Cc1ccc(OCCCC2CCN(c3ncc(CO)cn3)CC2)cc1F)N1CC(CNC[C@H](O)[C@@H](O)[C@H](O)[C@H](O)CO)C1` [Compound A55, 2-[2-fluoro-4-[3-[1-[5-(hydroxymethyl)pyrimidin-2-yl]-4-piperidyl]propoxy]phenyl]-1-[3-[[[(2S,3R,4R,5R)-2,3,4,5,6-pentahydroxyhexyl]amino]methyl]azetidin-1-yl]ethanone], the EC50 fell in the range of 1000 to 10000 nM.

For the molecule `O=C(NCC(O)(CO)CO)C1CN(C(=O)Cc2ccc(OCCCC3CCN(c4ncc(Cl)cn4)CC3)cc2F)C1` [Compound A5, 1-[2-[4-[3-[1-(5-chloropyrimidin-2-yl)-4-piperidyl]propoxy]-2-fluoro-phenyl]acetyl]-N-[2,3-dihydroxy-2-(hydroxymethyl)propyl]azetidine-3-carboxamide], the EC50 is at most 100 nM.

In turn, `COC(=O)c1cnc(N2CCC(CCCOc3ccc(CC(=O)N4CC(CNC[C@H](O)[C@@H](O)[C@H](O)[C@H](O)CO)C4)c(F)c3)CC2)nc1` [Compound A54, methyl 2-[4-[3-[3-fluoro-4-[2-oxo-2-[3-[[[(2S,3R,4R,5R)-2,3,4,5,6-pentahydroxyhexyl]amino]methyl]azetidin-1-yl]ethyl]phenoxy]propyl]-1-piperidyl]pyrimidine-5-carboxylate] returned an EC50 of 100 to 1000 nM.

As to `O=C(Cc1ccc(OCCCC2CCN(c3ncc(Cl)cn3)CC2)cc1F)N1CC(O)(CNC[C@H](O)[C@H](O)[C@H](O)CO)C1` [Compound A72, 2-[4-[3-[1-(5-chloropyrimidin-2-yl)-4-piperidyl]propoxy]-2-fluoro-phenyl]-1-[3-hydroxy-3-[[[(2S,3S,4R)-2,3,4,5-tetrahydroxypentyl]amino]methyl]azetidin-1-yl]ethanone], the EC50 was at most 100 nM.

`O=C(NC(CO)(CO)CO)C1CN(C(=O)Cc2c(F)cc(OCCCC3CCN(c4ncc(Cl)cn4)CC3)cc2F)C1` [Compound A1, 1-[2-[4-[3-[1-(5-chloropyrimidin-2-yl)-4-piperidyl]propoxy]-2,6-difluoro-phenyl]acetyl]-N-[2-hydroxy-1,1-bis(hydroxymethyl)ethyl]azetidine-3-carboxamide]: the EC50 was at most 100 nM.

Turning to `O=C(Cc1ccc(OCCCC2CCN(c3ncc(Cl)cn3)CC2)cc1F)N1CC(CNCC(O)(CO)CO)C1` [Compound A15, 2-[4-[3-[1-(5-chloropyrimidin-2-yl)-4-piperidyl]propoxy]-2-fluoro-phenyl]-1-[3-[[[2,3-dihydroxy-2-(hydroxymethyl)propyl]amino]methyl]azetidin-1-yl]ethanone], the EC50 was at most 100 nM.

`CCCc1cnc(N2CCC(CCCOc3cc(F)c(CC(=O)N4CC(CNC(CO)(CO)CO)C4)c(F)c3)CC2)nc1` [Compound A46, 2-(2,6-difluoro-4-(3-(1-(5-propylpyrimidin-2-yl)piperidin-4-yl)propoxy)phenyl)-1-(3-(((1,3-dihydroxy-2-(hydroxymethyl)propan-2-yl)amino)methyl)azetidin-1-yl)ethan-1-one] registered a concentration for a half-maximal effect (EC50) of at most 100 nM.

As for `CCOc1cnc(N2CCC(CCCOc3ccc(CC(=O)N4CC(CC(=O)NCC(O)(CO)CO)C4)c(F)c3)CC2)nc1` [Compound A57, N-[2,3-dihydroxy-2-(hydroxymethyl)propyl]-2-[1-[2-[4-[3-[1-(5-ethoxypyrimidin-2-yl)-4-piperidyl]propoxy]-2-fluoro-phenyl]acetyl]azetidin-3-yl]acetamide], the EC50 was at most 100 nM.

With `O=C(CC1CN(C(=O)Cc2ccc(OCCCC3CCN(c4ncc(Cl)cn4)CC3)cc2F)C1)NC[C@H](O)[C@@H](O)[C@H](O)[C@H](O)CO` (racemic) [Compound A11, 2-[1-[2-[4-[3-[1-(5-chloropyrimidin-2-yl)-4-piperidyl]propoxy]-2-fluoro-phenyl]acetyl]azetidin-3-yl]-N-[rac-(2S,3R,4R,5R)-2,3,4,5,6-pentahydroxyhexyl]acetamide], the EC50 was in the range of 100 to 1000 nM.

Consider `O=C(NCCS(=O)(=O)O)C1CN(C(=O)Cc2ccc(OCCCC3CCN(c4ncc(Cl)cn4)CC3)cc2F)C1` [Compound A63, 2-[[1-[2-[4-[3-[1-(5-chloropyrimidin-2-yl)-4-piperidyl]propoxy]-2-fluoro-phenyl]acetyl]azetidine-3-carbonyl]amino]ethanesulfonic acid], for which the EC50 fell in the range of 100 to 1000 nM.

`CCCc1cnc(N2CCC(CCCOc3ccc(CC(=O)N4CC(CNCCNC(=O)NC(CO)(CO)CO)C4)c(F)c3)CC2)nc1` [Compound A43, 1-(1,3-dihydroxy-2-(hydroxymethyl)propan-2-yl)-3-(2-(((1-(2-(2-fluoro-4-(3-(1-(5-propylpyrimidin-2-yl)piperidin-4-yl)propoxy)phenyl)acetyl)azetidin-3-yl)methyl)amino)ethyl)urea]: the EC50 was 100 to 1000 nM.

For `O=C(Cc1ccc(OCCCC2CCN(c3ncc(Cl)cn3)CC2)cc1F)N1CC(CN2C[C@H](O)[C@@H](O)C2)C1` (stereo in doubt) [Compound A18, 2-[4-[3-[1-(5-chloropyrimidin-2-yl)-4-piperidyl]propoxy]-2-fluoro-phenyl]-1-[3-[[rac-(3S,4S)-3,4-dihydroxypyrrolidin-1-yl]methyl]azetidin-1-yl]ethanone], the EC50 was at most 100 nM.

Take `O=C(Cc1ccc(OCCCC2CCN(c3ncc(Cl)cn3)CC2)cc1F)N1CC(CN2C[C@@H](O)[C@H](O)C2)C1` (stereo in doubt) [Compound A19, 2-[4-[3-[1-(5-chloropyrimidin-2-yl)-4-piperidyl]propoxy]-2-fluoro-phenyl]-1-[3-[[rac-(3R,4R)-3,4-dihydroxypyrrolidin-1-yl]methyl]azetidin-1-yl]ethanone]: the EC50 is at most 100 nM.

`O=C(Cc1ccc(OCCCC2CCN(c3ncc(Cl)cn3)CC2)cc1F)N1CC(CNC[C@H](O)[C@@H](O)[C@H](O)CO)C1` [Compound A61, 2-[4-[3-[1-(5-chloropyrimidin-2-yl)-4-piperidyl]propoxy]-2-fluoro-phenyl]-1-[3-[[[(2S,3R,4R)-2,3,4,5-tetrahydroxypentyl]amino]methyl]azetidin-1-yl]ethanone] registered an EC50 of at most 100 nM.
